Where two headings read alike, the source gives them in different places.
Columns and labels:
pigweed, palmer [1] = experiment: Test A preemergence; format: in vivo, Amaranthus palmeri; settings: for pest or weed control at 500 g/ha / pest or weed control at 125 g/ha: Amaranthus palmeri, pre-emergence, 240 h, read-out: Plant response rating, Pigweed, Palmer; for pest or weed control at 500 g/ha: 500 g ai/ha
Summary of the method: (§1)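 Seeds in loam–sand blend received a directed preemergence soil spray of compound in non-phytotoxic solvent with surfactant; postemergence plants (2–10 cm, one- to two-leaf stage) were sprayed with the same formulation. After 10 days in greenhouse, injury was rated visually versus untreated controls, 0 (no effect) to 100 (complete control).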

barnyardgrass = experiment: Test B flooded paddy test; format: in vivo, Echinochloa crus-galli; settings: 250 g ai/ha, Flood, 13 days, 0 to 100 scale (0 no effect, 100 complete control); for pest or weed control at 250 g/ha: Echinochloa crus-galli, 312 h, read-out: Plant response rating, Barnyardgrass
Summary of the method: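 Compound is introduced into paddy water covering soil by 3 cm, treating plants that have reached two leaves. Pots are kept flooded at that depth under greenhouse conditions. Assessment at 13 days gives a 0–100 visual control score.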

ragweed [2] = experiment: Test A preemergence; format: in vivo, Ambrosia artemisiifolia; settings: for pest or weed control at 500 g/ha / pest or weed control at 125 g/ha: Ambrosia artemisiifolia, pre-emergence, 240 h, read-out: Plant response rating, Ragweed; for pest or weed control at 500 g/ha: 500 g ai/ha
Summary of the method: as §1

horseweed = experiment: Test A postemergence; format: in vivo, Erigeron canadensis; settings: postemergence, 10 days; for pest or weed control at 500 g/ha / pest or weed control at 125 g/ha: Erigeron canadensis, post-emergence, 240 h, 0 to 100 scale (0 no effect, 100 complete control); for pest or weed control at 500 g/ha: 500 g ai/ha, visual injury, read-out: Plant response rating, Horseweed; for pest or weed control at 125 g/ha: read-out: Horseweed plant response rating
Summary of the method: as §1

wheat = experiment: Test A preemergence; format: in vivo, Triticum aestivum; settings: for plant injury at 500 g/ha / plant injury at 125 g/ha: Triticum aestivum, pre-emergence, 240 h, read-out: Plant response rating, Wheat; for plant injury at 500 g/ha: 500 g ai/ha
Summary of the method: as §1

ryegrass, Italian = experiment: Test A preemergence; format: in vivo, Lolium multiflorum; settings: for pest or weed control at 500 g/ha / pest or weed control at 125 g/ha: Lolium multiflorum, pre-emergence, 240 h, read-out: Plant response rating, Ryegrass, Italian; for pest or weed control at 500 g/ha: 500 g ai/ha
Summary of the method: as §1

foxtail, giant [3] = experiment: Test A preemergence; format: in vivo, Setaria faberi; settings: for pest or weed control at 500 g/ha / pest or weed control at 125 g/ha: Setaria faberi, pre-emergence, 240 h, read-out: Plant response rating, Foxtail, Giant; for pest or weed control at 500 g/ha: 500 g ai/ha
Summary of the method: as §1

kochia = experiment: Test A postemergence; format: in vivo, Bassia scoparia; settings: postemergence, 10 days; for pest or weed control at 500 g/ha / pest or weed control at 125 g/ha: Bassia scoparia, post-emergence, 240 h, 0 to 100 scale (0 no effect, 100 complete control); for pest or weed control at 500 g/ha: 500 g ai/ha, visual injury, read-out: Plant response rating, Kochia; for pest or weed control at 125 g/ha: read-out: Kochia plant response rating
Summary of the method: as §1

corn [4] = experiment: Test A postemergence; format: in vivo, Zea mays; settings: postemergence, 10 days; for Corn plant response rating (crop injury, 0 = no effect, 100 = complete kill) at 500 g/ha / plant injury at 125 g/ha: Zea mays, post-emergence, 240 h, 0 to 100 scale (0 no effect, 100 complete control); for Corn plant response rating (crop injury, 0 = no effect, 100 = complete kill) at 500 g/ha: 500 g ai/ha, visual injury; for plant injury at 125 g/ha: read-out: Corn plant response rating
Summary of the method: as §1

ragweed [5] = experiment: Test A postemergence; format: in vivo, Ambrosia artemisiifolia; settings: postemergence, 10 days; for pest or weed control at 125 g/ha / pest or weed control at 500 g/ha: Ambrosia artemisiifolia, post-emergence, 240 h; for pest or weed control at 125 g/ha: read-out: Ragweed plant response rating; for pest or weed control at 500 g/ha: read-out: Plant response rating, Ragweed
Summary of the method: as §1

soybean = experiment: Test A postemergence; format: in vivo, Glycine max; settings: postemergence, 10 days; for plant injury at 500 g/ha / plant injury at 125 g/ha: Glycine max, post-emergence, 240 h, 0 to 100 scale (0 no effect, 100 complete control); for plant injury at 500 g/ha: 500 g ai/ha, visual injury, read-out: Plant response rating, Soybean; for plant injury at 125 g/ha: read-out: Soybean plant response rating
Summary of the method: as §1

pigweed, palmer [6] = experiment: Test A postemergence; format: in vivo, Amaranthus palmeri; settings: postemergence, 10 days; for pest or weed control at 500 g/ha / pest or weed control at 125 g/ha: Amaranthus palmeri, post-emergence, 240 h, 0 to 100 scale (0 no effect, 100 complete control); for pest or weed control at 500 g/ha: 500 g ai/ha, visual injury, read-out: Plant response rating, Pigweed, Palmer; for pest or weed control at 125 g/ha: read-out: Pigweed, Palmer plant response rating
Summary of the method: as §1

corn [7] = experiment: Test A preemergence; format: in vivo, Zea mays; settings: for Corn plant response rating (crop injury, 0 = no effect, 100 = complete kill) at 500 g/ha / Corn plant response rating (crop injury, 0 = no effect, 100 = complete kill) at 125 g/ha: Zea mays, pre-emergence, 240 h; for Corn plant response rating (crop injury, 0 = no effect, 100 = complete kill) at 500 g/ha: 500 g ai/ha
Summary of the method: as §1

foxtail, giant [8] = experiment: Test A postemergence; format: in vivo, Setaria faberi; settings: postemergence, 10 days; for pest or weed control at 500 g/ha / pest or weed control at 125 g/ha: Setaria faberi, post-emergence, 240 h, 0 to 100 scale (0 no effect, 100 complete control); for pest or weed control at 500 g/ha: 500 g ai/ha, visual injury, read-out: Plant response rating, Foxtail, Giant; for pest or weed control at 125 g/ha: read-out: Foxtail, Giant plant response rating
Summary of the method: as §1

[9] = visual injury after 10 days, 0 to 100 scale, 0 is no effect, 100 is complete control
[10] = 125 g ai/ha, 0 to 100 scale, 0 no effect, 100 complete control
[11] = 500 g ai/ha, visual injury, 0 to 100 scale (0 no effect, 100 complete control)
[12] = 125 g ai/ha, visual injury after 10 days, 0 to 100 scale, 0 is no effect, 100 is complete control
[13] = 0 to 100 scale (0 no effect, 100 complete control), 10 days
[14] = 125 g ai/ha, 0 to 100 scale (0 no effect, 100 complete control)

CC(C)c1ncn(-c2cc(C(=O)N3C[C@H](C)Oc4c(Cl)cccc43)c3ccccc3c2)n1 [Compound 145]
Plant response rating, Pigweed, Palmer (pigweed, palmer [1]; 125 g ai/ha, 0 to 100 scale): 80 | pest or weed control at 500 g/ha (pigweed, palmer [1]; [9]): 100% | Plant response rating, Barnyardgrass (barnyardgrass): 45 | Plant response rating, Ragweed (ragweed [2]; 125 g ai/ha, 0 to 100 scale): 0 | pest or weed control at 500 g/ha (ragweed [2]; [9]): 0% | Horseweed plant response rating (horseweed; [10]): 0 | pest or weed control at 500 g/ha (horseweed): 0% | Plant response rating, Wheat (wheat; 125 g ai/ha, 0 to 100 scale): 0 | plant injury at 500 g/ha (wheat; [9]): 0% | Plant response rating, Ryegrass, Italian (ryegrass, Italian; 125 g ai/ha, 0 to 100 scale): 40 | pest or weed control at 500 g/ha (ryegrass, Italian; [9]): 90% | Plant response rating, Foxtail, Giant (foxtail, giant [3]; 125 g ai/ha, 0 to 100 scale): 70 | pest or weed control at 500 g/ha (foxtail, giant [3]; [9]): 80% | Kochia plant response rating (kochia; [10]): 70 | pest or weed control at 500 g/ha (kochia): 80% | Corn plant response rating (corn [4]; [10]): 10 | Corn plant response rating (crop injury, 0 = no effect, 100 = complete kill) at 500 g/ha (corn [4]): 20% | Ragweed plant response rating (ragweed [5]; [10]): 0 | Plant response rating, Ragweed (ragweed [5]; [11]): 10 | Soybean plant response rating (soybean; [10]): 40 | plant injury at 500 g/ha (soybean): 100% | Pigweed, Palmer plant response rating (pigweed, palmer [6]; [10]): 70 | pest or weed control at 500 g/ha (pigweed, palmer [6]): 90% | Plant response rating, Corn (corn [7]; 125 g ai/ha, 0 to 100 scale): 0 | Corn plant response rating (crop injury, 0 = no effect, 100 = complete kill) at 500 g/ha (corn [7]; [9]): 0% | Foxtail, Giant plant response rating (foxtail, giant [8]; [10]): 20 | pest or weed control at 500 g/ha (foxtail, giant [8]): 50%

Cc1ccc(-n2cnc(C3CCC3)n2)cc1C(=O)N1C[C@H](C)Oc2c(Cl)cccc21 [Compound 96, [(2S)-8-Chloro-2,3-dihydro-2-methyl-4H-1,4-benzoxazin-4-yl][5-(3-cyclobutyl-1H-1,2,4-triazol-1-yl)-2-methylphenyl]methanone]
pest or weed control at 125 g/ha (pigweed, palmer [1]; [12]): 100% | pest or weed control at 500 g/ha (pigweed, palmer [1]; [13]): 100% | pest or weed control at 250 g/ha (barnyardgrass): 60% | pest or weed control at 125 g/ha (ragweed [2]; [12]): 30% | pest or weed control at 500 g/ha (ragweed [2]; [13]): 30% | pest or weed control at 125 g/ha (horseweed; 125 g ai/ha): 40% | pest or weed control at 500 g/ha (horseweed): 80% | plant injury at 125 g/ha (wheat; [12]): 20% | plant injury at 500 g/ha (wheat; [13]): 50% | pest or weed control at 125 g/ha (ryegrass, Italian; [12]): 100% | pest or weed control at 500 g/ha (ryegrass, Italian; [13]): 100% | pest or weed control at 125 g/ha (foxtail, giant [3]; [12]): 100% | pest or weed control at 500 g/ha (foxtail, giant [3]; [13]): 100% | pest or weed control at 125 g/ha (kochia; 125 g ai/ha): 90% | pest or weed control at 500 g/ha (kochia): 100% | plant injury at 125 g/ha (corn [4]; 125 g ai/ha): 10% | Corn plant response rating (crop injury, 0 = no effect, 100 = complete kill) at 500 g/ha (corn [4]): 60% | pest or weed control at 125 g/ha (ragweed [5]; [14]): 60% | pest or weed control at 500 g/ha (ragweed [5]; [11]): 70% | plant injury at 125 g/ha (soybean; 125 g ai/ha): 100% | plant injury at 500 g/ha (soybean): 100% | pest or weed control at 125 g/ha (pigweed, palmer [6]; 125 g ai/ha): 90% | pest or weed control at 500 g/ha (pigweed, palmer [6]): 90% | Corn plant response rating (crop injury, 0 = no effect, 100 = complete kill) at 125 g/ha (corn [7]; [12]): 30% | Corn plant response rating (crop injury, 0 = no effect, 100 = complete kill) at 500 g/ha (corn [7]; [13]): 50% | pest or weed control at 125 g/ha (foxtail, giant [8]; 125 g ai/ha): 90% | pest or weed control at 500 g/ha (foxtail, giant [8]): 90%

COc1ccc(-n2cnc(C(C)C)n2)cc1C(=O)N1C[C@H](C)Oc2c(Cl)cccc21 [Compound 84, [(2S)-8-chloro-2-methyl-2,3-dihydro-1,4-benzoxazin-4-yl]-[5-(3-isopropyl-1,2,4-triazol-1-yl)-2-methoxy-phenyl]methanone]
pest or weed control at 125 g/ha (pigweed, palmer [1]; [12]): 100% | pest or weed control at 500 g/ha (pigweed, palmer [1]; [13]): 100% | pest or weed control at 250 g/ha (barnyardgrass): 65% | pest or weed control at 125 g/ha (ragweed [2]; [12]): 70% | pest or weed control at 500 g/ha (ragweed [2]; [13]): 100% | pest or weed control at 125 g/ha (horseweed; 125 g ai/ha): 40% | pest or weed control at 500 g/ha (horseweed): 50% | plant injury at 125 g/ha (wheat; [12]): 60% | plant injury at 500 g/ha (wheat; [13]): 90% | pest or weed control at 125 g/ha (ryegrass, Italian; [12]): 100% | pest or weed control at 500 g/ha (ryegrass, Italian; [13]): 100% | pest or weed control at 125 g/ha (foxtail, giant [3]; [12]): 100% | pest or weed control at 500 g/ha (foxtail, giant [3]; [13]): 100% | pest or weed control at 125 g/ha (kochia; 125 g ai/ha): 90% | pest or weed control at 500 g/ha (kochia): 90% | plant injury at 125 g/ha (corn [4]; 125 g ai/ha): 70% | Corn plant response rating (crop injury, 0 = no effect, 100 = complete kill) at 500 g/ha (corn [4]): 90% | pest or weed control at 125 g/ha (ragweed [5]; [14]): 100% | pest or weed control at 500 g/ha (ragweed [5]; [11]): 100% | plant injury at 125 g/ha (soybean; 125 g ai/ha): 100% | plant injury at 500 g/ha (soybean): 100% | pest or weed control at 125 g/ha (pigweed, palmer [6]; 125 g ai/ha): 90% | pest or weed control at 500 g/ha (pigweed, palmer [6]): 100% | Corn plant response rating (crop injury, 0 = no effect, 100 = complete kill) at 125 g/ha (corn [7]; [12]): 20% | Corn plant response rating (crop injury, 0 = no effect, 100 = complete kill) at 500 g/ha (corn [7]; [13]): 20% | pest or weed control at 125 g/ha (foxtail, giant [8]; 125 g ai/ha): 80% | pest or weed control at 500 g/ha (foxtail, giant [8]): 100%

— patent US20260262643A1, “HERBICIDAL BENZOXAZINES” (FMC CORPORATION, priority 2022, published 2026)
